Data reported in patent US7494996B2 (priority 2000, dated 2009).

Legend:
[1] = test system: Sphaerotheca fuliginea; assay: Cucumber Powdery Mildew (CPM) protectant test in the greenhouse; type: in vivo; conditions: 100 is total disease control, 0 is no disease control; for pest or weed control at 300 g/ha: Podosphaera fuliginea, topical, 168 h, read-out: Cucumber Powdery Mildew (CPM) protectant fungicide data, percent control; for Cucumber Powdery Mildew (CPM) protectant fungicide data, percent control: 300 g/ha
In short: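 Protectant format: one day after spraying with test compound (A/M/W 1:1:2), cotyledon-plus-one-leaf cucumber plants were misted with Sphaerotheca spores at 2×10^5/ml. Greenhouse disease development; percent control scored at day 7 (100 = total, 0 = none).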

[2] = test system: Pyricularia oryzae; assay: whole plant or invertebrate; type: in vivo; conditions: 100 is total disease control, 0 is no disease control; for pest or weed control at 300 g/ha: Pyricularia oryzae, topical, 144 h, read-out: Rice Blast (RB) protectant fungicide data, percent control, protectant, 300 g/ha, greenhouse; for Rice Blast (RB) protectant fungicide data, percent control: 300 g/ha, greenhouse
[3] = test system: Southern Armyworm; assay: Protocol 1 Southern Armyworm (AW) foliar spray test; type: in vivo, Spodoptera eridania
Procedure: (§1) A test solution containing 1250 parts per million (ppm) was prepared by dissolving the test compound in […] of a second solvent (acetone: water, 1:1) to give an acetone:water: methanol system of 50: 40:10.
(§2) The enclosed spraying chamber consisted of a single spray nozzle mounted on a boom moving at a fixed speed and distance over stationary targets. The vertical distance from the nozzle tip to the targets was adjusted to give rates varying from 150 g/ha to 600 g/ha
(§3) Individual fully expanded primary lima bean (Phaseolus limensis) leaves were placed bottom side up on moistened pieces of filter paper in Petri dishes. The leaves were sprayed with the test solutions and allowed to dry. The dishes were infested with 5 third instar larvae of the southern armyworm, covered with the lids, and held at 27° C. Armyworm control was rated by visual inspection after 48 hours. […] A rating of 0 indicated no dead larvae and normal feeding. Intermediate control was indicated by intermediate ratings.

[4] = test system: Mexican Bean Beetle; assay: Protocol 1 Mexican Bean Beetle (BB) foliar spray test; type: in vivo, Epilachna verivestis; conditions: control rated after 48 hours (100 = all larvae dead)
Procedure: as §1, §2
as §3, with “mexican bean beetle,” for “southern armyworm,”, “Bean beetle” for “Armyworm”

[5] = test system: Two-Spotted Spider Mite; assay: Protocol 1 Two-Spotted Spider Mite (MTA) foliar spray test; type: in vivo, Tetranychus urticae; conditions: percentage of mites killed 1-day post-treatment
Procedure: as §1, §2
A pad of moistened cotton was placed in a Petri dish. A 1-inch square section cut from a fully expanded primary lima bean (Phaseolus limensis) leaf was positioned bottom side up on the moist cotton. The leaf square was infested with approximately 50 adult female mites. The dishes were sprayed with the test solutions and held at 27° C. for mortality determination 1-day post-treatment. The percentage of mites killed were rated from 100% (all dead) to 0% (all alive).

O=C1CNC(c2ccc(Cl)cc2)=NN1CC(F)(F)F [Compound 4, 1-(2,2,2-trifluoroethyl)-3-(4-chlorophenyl)-4,5-dihydro-1,2,4-triazin-6-one]
pest or weed control at 300 g/ha [1]: 50% | pest or weed control at 300 g/ha [2]: 99% | AW ([3]; Protocol 1, DOSE 300): 75 | BB ([4]; Protocol 1, DOSE 300): 0

O=C1CNC(c2ccc(Cl)cc2)=NN1 [Compound 5, 3-(4-Chlorophenyl)-4,5-dihydro-1,2,4-triazin-6-one]
pest or weed control at 300 g/ha [1]: 50% | pest or weed control at 300 g/ha [2]: 75% | AW ([3]; Protocol 1, DOSE 600): 50 | BB ([4]; Protocol 1, DOSE 300): 75

CC(C)(C)N1N=C(c2ccc(Cl)cc2)NCC1=O [Compound 6, 1-t-Butyl-3-(4-chlorophenyl)-4,5-dihydro-1,2,4-triazin-6-one]
pest or weed control at 300 g/ha [1]: 50% | pest or weed control at 300 g/ha [2]: 90% | AW ([3]; Protocol 1, DOSE 300): 0 | BB ([4]; Protocol 1, DOSE 300): 100

O=c1cnc(-c2ccccc2)nn1CC(F)(F)F [Compound 7, 1-(2,2,2-trifluoroethyl)-3-phenyl-1,2,4-triazin-6-one]
pest or weed control at 300 g/ha [1]: 75% | pest or weed control at 300 g/ha [2]: 95% | AW ([3]; Protocol 1, DOSE 300): 0 | BB ([4]; Protocol 1, DOSE 300): 100

CCC#CCn1nc(-c2ccc(Cl)cc2)ncc1=O [Compound 8, 1-(2-pentynyl)-3-(4-chlorophenyl)-1,2,4-triazin-6-one]
pest or weed control at 300 g/ha [1]: 90% | pest or weed control at 300 g/ha [2]: 99% | AW ([3]; Protocol 1, DOSE 300): 0 | BB ([4]; Protocol 1, DOSE 300): 0

CCCSC1NC(c2ccc(Cl)cc2)=NN(CC(F)(F)F)C1=O (centres unmarked) [Compound 19, 1-(2,2,2-trifluoroethyl)-3-(4-chlorophenyl)-5-propylthio-4,5-dihydro-1,2,4-triazin-6-one]
pest or weed control at 300 g/ha [1]: 75% | pest or weed control at 300 g/ha [2]: 100% | AW ([3]; Protocol 1, DOSE 150): 0 | BB ([4]; Protocol 1, DOSE 150): 100

COC1NC(c2ccc(Cl)cc2)=NN(CC(F)(F)F)C1=O (centres unmarked) [Compound 26]
Cucumber Powdery Mildew (CPM) protectant fungicide data, percent control [1]: 95 percent control | Rice Blast (RB) protectant fungicide data, percent control [2]: 100 percent control | AW ([3]; Protocol 1, DOSE 300): 0 | BB ([4]; Protocol 1, DOSE 300): 50 | MTA ([5]; Protocol 1, DOSE 300): 0%

CN1N=C(c2ccc(Cl)cc2)NCC1=O [Compound 27]
Cucumber Powdery Mildew (CPM) protectant fungicide data, percent control [1]: 99 percent control | Rice Blast (RB) protectant fungicide data, percent control [2]: 80 percent control | AW ([3]; Protocol 1, DOSE 300): 0 | BB ([4]; Protocol 1, DOSE 300): 75 | MTA ([5]; Protocol 1, DOSE 300): 0%

O=C1CNC(c2ccc(Cl)cc2)=NN1c1ccccc1 [Compound 29]
Cucumber Powdery Mildew (CPM) protectant fungicide data, percent control [1]: 90 percent control | Rice Blast (RB) protectant fungicide data, percent control [2]: 90 percent control | AW ([3]; Protocol 1, DOSE 300): 0 | BB ([4]; Protocol 1, DOSE 300): 0 | MTA ([5]; Protocol 1, DOSE 300): 90%

O=C1CNC(c2ccccc2)=NN1CC(F)(F)F [Compound 33]
Cucumber Powdery Mildew (CPM) protectant fungicide data, percent control [1]: 75 percent control | Rice Blast (RB) protectant fungicide data, percent control [2]: 80 percent control | AW ([3]; Protocol 1, DOSE 300): 0 | BB ([4]; Protocol 1, DOSE 300): 100 | MTA ([5]; Protocol 1, DOSE 300): 75%

CN1CC(=O)N(CC(F)(F)F)N=C1c1ccccc1 [Compound 34]
AW ([3]; Protocol 1, DOSE 300): 0 | BB ([4]; Protocol 1, DOSE 300): 75 | MTA ([5]; Protocol 1, DOSE 300): 0%

O=C1CNC(c2cc(Cl)ccc2Cl)=NN1CC(F)(F)F [Compound 70]
Cucumber Powdery Mildew (CPM) protectant fungicide data, percent control [1]: 80 percent control | Rice Blast (RB) protectant fungicide data, percent control [2]: 80 percent control | MTA ([5]; Protocol 1, DOSE 150): 71%

CCN1N=C(c2ccc(Cl)c(Cl)c2)NCC1=O [Compound 100]
Cucumber Powdery Mildew (CPM) protectant fungicide data, percent control [1]: 80 percent control | Rice Blast (RB) protectant fungicide data, percent control [2]: 99 percent control | MTA ([5]; Protocol 1, DOSE 150): 25%

CCCCN1N=C(c2ccc(Cl)c(Cl)c2)NCC1=O [Compound 101]
Cucumber Powdery Mildew (CPM) protectant fungicide data, percent control [1]: 80 percent control | Rice Blast (RB) protectant fungicide data, percent control [2]: 100 percent control | MTA ([5]; Protocol 1, DOSE 150): 0%

O=C1CNC(c2ccc(Cl)c(Cl)c2)=NN1Cc1ccccc1 [Compound 103]
Cucumber Powdery Mildew (CPM) protectant fungicide data, percent control [1]: 0 percent control | Rice Blast (RB) protectant fungicide data, percent control [2]: 90 percent control | MTA ([5]; Protocol 1, DOSE 150): 23%

O=C1CNC(c2cc(Cl)cc(Cl)c2)=NN1CC1CC1 [Compound 109]
Cucumber Powdery Mildew (CPM) protectant fungicide data, percent control [1]: 95 percent control | Rice Blast (RB) protectant fungicide data, percent control [2]: 100 percent control | MTA ([5]; Protocol 1, DOSE 150): 90%
